{"source": "PubChem BioAssay (NCI)", "assay_in_all_cases": "NCI tumour cell line growth inhibition, 48 h", "key": {"786-0 renal": {"tested_on": "786-0 renal"}, "A498 renal": {"tested_on": "A498 renal"}, "A549 NSCLC": {"tested_on": "A549 NSCLC"}, "ACHN renal": {"tested_on": "ACHN renal"}, "BT-549 breast": {"tested_on": "BT-549 breast"}, "CCRF-CEM leukemia": {"tested_on": "CCRF-CEM leukemia"}, "COLO 205 colon": {"tested_on": "COLO 205 colon"}, "DU-145 prostate": {"tested_on": "DU-145 prostate"}, "HCC-2998 colon": {"tested_on": "HCC-2998 colon"}, "HCT-116 colon": {"tested_on": "HCT-116 colon"}, "HCT-15 colon": {"tested_on": "HCT-15 colon"}, "HL-60(TB) leukemia": {"tested_on": "HL-60(TB) leukemia"}, "HOP-62 NSCLC": {"tested_on": "HOP-62 NSCLC"}, "HOP-92 NSCLC": {"tested_on": "HOP-92 NSCLC"}, "HS 578T breast": {"tested_on": "HS 578T breast"}, "HT29 colon": {"tested_on": "HT29 colon"}, "IGROV1 ovarian": {"tested_on": "IGROV1 ovarian"}, "KM12 colon": {"tested_on": "KM12 colon"}, "LOX IMVI melanoma": {"tested_on": "LOX IMVI melanoma"}, "M14 melanoma": {"tested_on": "M14 melanoma"}, "MCF7 breast": {"tested_on": "MCF7 breast"}, "MDA-MB-231 breast": {"tested_on": "MDA-MB-231 breast"}, "MDA-MB-435": {"tested_on": "MDA-MB-435"}, "MOLT-4 leukemia": {"tested_on": "MOLT-4 leukemia"}, "NCI-H23 lung": {"tested_on": "NCI-H23 lung"}, "NCI-H460 lung": {"tested_on": "NCI-H460 lung"}, "NCI-H522 lung": {"tested_on": "NCI-H522 lung"}, "NCI/ADR-RES ovarian": {"tested_on": "NCI/ADR-RES ovarian"}, "OVCAR-3 ovarian": {"tested_on": "OVCAR-3 ovarian"}, "PC-3 prostate": {"tested_on": "PC-3 prostate"}, "RPMI-8226 leukemia": {"tested_on": "RPMI-8226 leukemia"}, "SF-268 CNS": {"tested_on": "SF-268 CNS"}, "SF-295 CNS": {"tested_on": "SF-295 CNS"}, "SK-MEL-2 melanoma": {"tested_on": "SK-MEL-2 melanoma"}, "SK-MEL-5 melanoma": {"tested_on": "SK-MEL-5 melanoma"}, "SK-OV-3 ovarian": {"tested_on": "SK-OV-3 ovarian"}, "SN12C renal": {"tested_on": "SN12C renal"}, "SNB-19 CNS": {"tested_on": "SNB-19 CNS"}, "SNB-75 CNS": {"tested_on": "SNB-75 CNS"}, "SR leukemia": {"tested_on": "SR leukemia"}, "SW-620 colon": {"tested_on": "SW-620 colon"}, "T-47D breast": {"tested_on": "T-47D breast"}, "TK-10 renal": {"tested_on": "TK-10 renal"}, "U251 CNS": {"tested_on": "U251 CNS"}, "UACC-257 melanoma": {"tested_on": "UACC-257 melanoma"}, "UACC-62 melanoma": {"tested_on": "UACC-62 melanoma"}, "UO-31 renal": {"tested_on": "UO-31 renal"}}, "note": "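Five compound concentrations were applied to cells in 96-well plates for 48 hours; endpoints were derived by simple linear interpolation of the resulting dose-response curve. Here, GI50 denotes the concentration required for 50% inhibition of growth. TGI: total growth inhibition.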", "data": [{"smiles": "C=C1C(=O)O[C@H]2[C@H]1CC/C(COC(=O)CCCC(=O)OC/C1=C/CC[C@@]3(C)O[C@H]3[C@H]3OC(=O)C(=C)[C@@H]3CC1)=C\\CC[C@@]1(C)O[C@@H]21", "values": [{"measurement": "GI50", "setting": "786-0 renal", "value": 1350, "unit": "nM"}, {"measurement": "TGI", "setting": "786-0 renal", "value": 2790, "unit": "nM"}, {"measurement": "GI50", "setting": "A498 renal", "value": 5580, "unit": "nM"}, {"measurement": "TGI", "setting": "A498 renal", "value": 19000, "unit": "nM"}, {"measurement": "GI50", "setting": "A549 NSCLC", "value": 4460, "unit": "nM"}, {"measurement": "TGI", "setting": "A549 NSCLC", "value": 41700, "unit": "nM"}, {"measurement": "GI50", "setting": "ACHN renal", "value": 764, "unit": "nM"}, {"measurement": "TGI", "setting": "ACHN renal", "value": 2030, "unit": "nM"}, {"measurement": "GI50", "setting": "BT-549 breast", "value": 1370, "unit": "nM"}, {"measurement": "TGI", "setting": "BT-549 breast", "value": 2950, "unit": "nM"}, {"measurement": "GI50", "setting": "CCRF-CEM leukemia", "value": 281, "unit": "nM"}, {"measurement": "TGI", "setting": "CCRF-CEM leukemia", "value": 757, "unit": "nM"}, {"measurement": "GI50", "setting": "COLO 205 colon", "value": 592, "unit": "nM"}, {"measurement": "TGI", "setting": "COLO 205 colon", "value": 2150, "unit": "nM"}, {"measurement": "GI50", "setting": "DU-145 prostate", "value": 1450, "unit": "nM"}, {"measurement": "TGI", "setting": "DU-145 prostate", "value": 2770, "unit": "nM"}, {"measurement": "GI50", "setting": "HCC-2998 colon", "value": 2070, "unit": "nM"}, {"measurement": "TGI", "setting": "HCC-2998 colon", "value": 4220, "unit": "nM"}, {"measurement": "GI50", "setting": "HCT-116 colon", "value": 1290, "unit": "nM"}, {"measurement": "TGI", "setting": "HCT-116 colon", "value": 2570, "unit": "nM"}, {"measurement": "GI50", "setting": "HCT-15 colon", "value": 814, "unit": "nM"}, {"measurement": "TGI", "setting": "HCT-15 colon", "value": 2350, "unit": "nM"}, {"measurement": "GI50", "setting": "HL-60(TB) leukemia", "value": 274, "unit": "nM"}, {"measurement": "TGI", "setting": "HL-60(TB) leukemia", "value": 1390, "unit": "nM"}, {"measurement": "GI50", "setting": "HOP-62 NSCLC", "value": 3310, "unit": "nM"}, {"measurement": "TGI", "setting": "HOP-62 NSCLC", "value": 16000, "unit": "nM"}, {"measurement": "GI50", "setting": "HOP-92 NSCLC", "value": 1870, "unit": "nM"}, {"measurement": "TGI", "setting": "HOP-92 NSCLC", "value": 3650, "unit": "nM"}, {"measurement": "GI50", "setting": "HS 578T breast", "value": 3420, "unit": "nM"}, {"measurement": "TGI", "setting": "HS 578T breast", "value": "> 100000", "unit": "nM"}, {"measurement": "GI50", "setting": "HT29 colon", "value": 752, "unit": "nM"}, {"measurement": "TGI", "setting": "HT29 colon", "value": 2160, "unit": "nM"}, {"measurement": "GI50", "setting": "IGROV1 ovarian", "value": 1660, "unit": "nM"}, {"measurement": "TGI", "setting": "IGROV1 ovarian", "value": 4540, "unit": "nM"}, {"measurement": "GI50", "setting": "KM12 colon", "value": 2240, "unit": "nM"}, {"measurement": "TGI", "setting": "KM12 colon", "value": 6850, "unit": "nM"}, {"measurement": "GI50", "setting": "LOX IMVI melanoma", "value": 1040, "unit": "nM"}, {"measurement": "TGI", "setting": "LOX IMVI melanoma", "value": 2310, "unit": "nM"}, {"measurement": "GI50", "setting": "M14 melanoma", "value": 1720, "unit": "nM"}, {"measurement": "TGI", "setting": "M14 melanoma", "value": 4510, "unit": "nM"}, {"measurement": "GI50", "setting": "MCF7 breast", "value": 500, "unit": "nM"}, {"measurement": "TGI", "setting": "MCF7 breast", "value": 2430, "unit": "nM"}, {"measurement": "GI50", "setting": "MDA-MB-231 breast", "value": 1390, "unit": "nM"}, {"measurement": "TGI", "setting": "MDA-MB-231 breast", "value": 2900, "unit": "nM"}, {"measurement": "GI50", "setting": "MDA-MB-435", "value": 1690, "unit": "nM"}, {"measurement": "TGI", "setting": "MDA-MB-435", "value": 5180, "unit": "nM"}, {"measurement": "GI50", "setting": "MOLT-4 leukemia", "value": 396, "unit": "nM"}, {"measurement": "TGI", "setting": "MOLT-4 leukemia", "value": 2070, "unit": "nM"}, {"measurement": "GI50", "setting": "NCI-H23 lung", "value": 2280, "unit": "nM"}, {"measurement": "TGI", "setting": "NCI-H23 lung", "value": 6670, "unit": "nM"}, {"measurement": "GI50", "setting": "NCI-H460 lung", "value": 3180, "unit": "nM"}, {"measurement": "TGI", "setting": "NCI-H460 lung", "value": 12700, "unit": "nM"}, {"measurement": "GI50", "setting": "NCI-H522 lung", "value": 678, "unit": "nM"}, {"measurement": "TGI", "setting": "NCI-H522 lung", "value": 2340, "unit": "nM"}, {"measurement": "GI50", "setting": "NCI/ADR-RES ovarian", "value": 4630, "unit": "nM"}, {"measurement": "TGI", "setting": "NCI/ADR-RES ovarian", "value": "> 100000", "unit": "nM"}, {"measurement": "GI50", "setting": "OVCAR-3 ovarian", "value": 401, "unit": "nM"}, {"measurement": "TGI", "setting": "OVCAR-3 ovarian", "value": 1520, "unit": "nM"}, {"measurement": "GI50", "setting": "PC-3 prostate", "value": 2860, "unit": "nM"}, {"measurement": "TGI", "setting": "PC-3 prostate", "value": 8370, "unit": "nM"}, {"measurement": "GI50", "setting": "RPMI-8226 leukemia", "value": 362, "unit": "nM"}, {"measurement": "TGI", "setting": "RPMI-8226 leukemia", "value": 1500, "unit": "nM"}, {"measurement": "GI50", "setting": "SF-268 CNS", "value": 2770, "unit": "nM"}, {"measurement": "TGI", "setting": "SF-268 CNS", "value": 15100, "unit": "nM"}, {"measurement": "GI50", "setting": "SF-295 CNS", "value": 4710, "unit": "nM"}, {"measurement": "TGI", "setting": "SF-295 CNS", "value": "> 100000", "unit": "nM"}, {"measurement": "GI50", "setting": "SK-MEL-2 melanoma", "value": 2180, "unit": "nM"}, {"measurement": "TGI", "setting": "SK-MEL-2 melanoma", "value": 6500, "unit": "nM"}, {"measurement": "GI50", "setting": "SK-MEL-5 melanoma", "value": 2250, "unit": "nM"}, {"measurement": "TGI", "setting": "SK-MEL-5 melanoma", "value": 5680, "unit": "nM"}, {"measurement": "GI50", "setting": "SK-OV-3 ovarian", "value": 9890, "unit": "nM"}, {"measurement": "TGI", "setting": "SK-OV-3 ovarian", "value": "> 100000", "unit": "nM"}, {"measurement": "GI50", "setting": "SN12C renal", "value": 2300, "unit": "nM"}, {"measurement": "TGI", "setting": "SN12C renal", "value": 6920, "unit": "nM"}, {"measurement": "GI50", "setting": "SNB-19 CNS", "value": 2910, "unit": "nM"}, {"measurement": "TGI", "setting": "SNB-19 CNS", "value": 14400, "unit": "nM"}, {"measurement": "GI50", "setting": "SNB-75 CNS", "value": 2840, "unit": "nM"}, {"measurement": "TGI", "setting": "SNB-75 CNS", "value": "> 100000", "unit": "nM"}, {"measurement": "GI50", "setting": "SR leukemia", "value": 501, "unit": "nM"}, {"measurement": "TGI", "setting": "SR leukemia", "value": 3450, "unit": "nM"}, {"measurement": "GI50", "setting": "SW-620 colon", "value": 608, "unit": "nM"}, {"measurement": "TGI", "setting": "SW-620 colon", "value": 2040, "unit": "nM"}, {"measurement": "GI50", "setting": "T-47D breast", "value": 1190, "unit": "nM"}, {"measurement": "TGI", "setting": "T-47D breast", "value": 3810, "unit": "nM"}, {"measurement": "GI50", "setting": "TK-10 renal", "value": 1530, "unit": "nM"}, {"measurement": "TGI", "setting": "TK-10 renal", "value": 3040, "unit": "nM"}, {"measurement": "GI50", "setting": "U251 CNS", "value": 2920, "unit": "nM"}, {"measurement": "TGI", "setting": "U251 CNS", "value": 10300, "unit": "nM"}, {"measurement": "GI50", "setting": "UACC-257 melanoma", "value": 2000, "unit": "nM"}, {"measurement": "TGI", "setting": "UACC-257 melanoma", "value": 4970, "unit": "nM"}, {"measurement": "GI50", "setting": "UACC-62 melanoma", "value": 1540, "unit": "nM"}, {"measurement": "TGI", "setting": "UACC-62 melanoma", "value": 4530, "unit": "nM"}, {"measurement": "GI50", "setting": "UO-31 renal", "value": 1110, "unit": "nM"}, {"measurement": "TGI", "setting": "UO-31 renal", "value": 2310, "unit": "nM"}]}]}
